Tests used:
[1] = cited from earlier work
[2] = test system: bowel peristalsis / gastric emptying; assay: postoperative colic (ileus) in a burn patient treated with methylnaltrexone infusion; format: in vivo, human; settings: following administration of the drug (unpublished data)
Description: Recent human data support the role of endogenous opioids, including endorphins, in the pathogenesis of postoperative ileus in humans. See Taguchi A., et al., “Selective postoperative inhibition of gastrointestinal opioid receptors,” New Engl. J. Med. 345:935-40, 2001. No reference is made to either equine colic or the etiology of perioperative management of equines or other animals. […] Prior to administration, there had been no evidence of bowel peristalsis and no passage of flatus. See Moss J., et al., “Selective postoperative inhibition of gastrointestinal opioid receptors,” (correspondence) New Engl. J. Med. 346(6):455 (2002).

[3] = test system: bowel peristalsis / gastric emptying; settings: one burn patient with postoperative colic; infusion 0.3 mg/kg over 15 minutes; during drug administration; cited from earlier work
[4] = in vivo; cited from earlier work
[5] = test system: morphine-induced rage; settings: in an animal; cited from earlier work
[6] = test system: gut motility; settings: β-endorphin homologues from six species; read-out: IC50 on the standard model of gut motility; cited from earlier work

Row | Compound | absorption after oral administration ([1]; from the stomach and bowel) | time to initial plasma levels ([1]; oral administration, non-enteric coated compound) [min] | gastric residuals [2] | bowel sounds and flatus [3] | crossing of the blood-brain-barrier [4] | severity of morphine-induced rage [5] | IC50 [6] [nM]
1 | C[N@+]1(CC2CC2)CC[C@]23c4c5ccc(O)c4O[C@H]2C(=O)CC[C@@]3(O)[C@H]1C5 [methylnaltrexone] | rapidly absorbed | 5 to 10 | markedly reduced | prompt restoration of bowel sounds and flatus | does not cross the blood-brain-barrier | minimize the severity | –
2 | human endorphin: human homologue of β-endorphin, IC50 printed as 'that of humans' | – | – | – | – | – | – | 12.2

— patent US20050011468A1, “Use of methylnaltrexone in treating gastrointestinal dysfunction in equines” (priority 2002, published 2005)
